Tests used:
Test in all cases: Cell proliferation assay, PARPi resistant panel
Assay type in all cases: cell-based
[1] = tested on: CAL851; conditions: Homo sapiens, CAL-85-1; CAL851, Breast, BRCA2 alteration; 5 population doublings
Experimental: (§1) A panel of cell lines (as disclosed in Table 2) that show inherent resistance to PARP inhibitors were identified and the effect of Formula A was tested using the cellular proliferation assay along with the 2 acquired resistant cell lines (PARPi resistant lines: HCC1428 and MDA-MB-436). For the proliferation assay, the cell lines were plated in 96 well plates (Corning #3904) at density of 1000 cells/well. DMSO dissolved compound was added using the TECAN liquid dispenser to generate a 9-point dose curve with a 3-fold dilution and 10 uM starting, top concentration. After 5 population doublings, the cell lines were treated with 5 uM of Vybrant DyeCycle Green (Life Technologies #V35004) and incubated for 60 minutes. The DMSO and compound treated wells were then imaged using the Incucyte® S3 system to determine the nuclear counts. The counts were normalized to the DMSO treated wells and the IC50 was determined using the standard four parametric dose response equation in GraphPad Prism Software.

[2] = tested on: HCC1569; conditions: Homo sapiens; HCC1569, Breast, BRCA2 alteration; 5 population doublings
Experimental: as §1

[3] = tested on: HCC1937; conditions: Homo sapiens; HCC1937, Breast, BRCA1 alteration; 5 population doublings
Experimental: as §1

[4] = tested on: HCC1954; conditions: Homo sapiens; HCC1954, Breast, BRCA1 alteration; 5 population doublings
Experimental: as §1

[5] = tested on: Kuramochi; conditions: Ovarian, BRCA2 alteration, 5 population doublings
Experimental: as §1

[6] = tested on: OVISE; conditions: Ovarian, BRCA2 alteration, 5 population doublings
Experimental: as §1

[7] = tested on: OVMANA; conditions: Ovarian, BRCA2 alteration, 5 population doublings
Experimental: as §1

[8] = tested on: RMUG-S; conditions: Ovarian, BRCA1/2 alteration, 5 population doublings
Experimental: as §1

SMILES: NC(=O)c1cccc2cn(-c3ccc([C@@H]4CCCNC4)cc3)nc12 [Niraparib, reference compound]
- IC50 [1]: 890 nM
- IC50 [2]: 570 nM
- IC50 [3]: 2270 nM
- IC50 [4]: 17.6 µM
- IC50 [5]: 1300 nM
- IC50 [6]: 680 nM
- IC50 [7]: 920 nM
- IC50 [8]: 2700 nM
